Results taken from US20100267561A1, “HERBICIDAL PYRIDAZINONE DERIVATIVES” (priority 2007, published 2010).
Read-outs that look alike come from different tables or passages of the source.

Legend:
Test in all cases: Test B pre-/postemergence plant response
Type in all cases: in vivo
[1] = system: goosegrass (Eleusine indica); settings: for pest or weed control at 31 g/ha / pest or weed control at 62 g/ha: Eleusine indica, read-out: Plant response rating, Goosegrass; for pest or weed control at 31 g/ha: 31 g ai/ha; for pest or weed control at 62 g/ha: 62 g ai/ha, 100 complete control
Summary of the method: (§1)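 Preemergence and postemergence (plants 2-18 cm, 1- to 4-leaf stage) applications used test chemicals in a non-phytotoxic solvent with surfactant. Plants were held in a greenhouse 13 to 15 days, then rated visually against controls on a 0-100 scale (0 no effect, 100 complete control).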

[2] = system: green foxtail (Setaria viridis); settings: for pest or weed control at 31 g/ha: 31 g ai/ha; for pest or weed control at 62 g/ha: 62 g ai/ha, 100 complete control
Summary of the method: as §1

soybean (Glycine max) = settings: for plant injury at 31 g/ha / plant injury at 62 g/ha: Glycine max, read-out: Plant response rating, Soybean; for plant injury at 31 g/ha: 31 g ai/ha; for plant injury at 62 g/ha: 62 g ai/ha, 100 complete control
Summary of the method: as §1

[3] = system: large crabgrass (Digitaria sanguinalis); settings: for pest or weed control at 31 g/ha: 31 g ai/ha; for pest or weed control at 62 g/ha: 62 g ai/ha, 100 complete control
Summary of the method: as §1

[4] = system: Italian ryegrass (Lolium multiflorum); settings: for pest or weed control at 31 g/ha / pest or weed control at 62 g/ha: Lolium multiflorum, read-out: Plant response rating, Ryegrass, Italian; for pest or weed control at 31 g/ha: 31 g ai/ha; for pest or weed control at 62 g/ha: 62 g ai/ha, 100 complete control
Summary of the method: as §1

[5] = system: bermudagrass (Cynodon dactylon); settings: for pest or weed control at 31 g/ha: 31 g ai/ha; for pest or weed control at 62 g/ha: 62 g ai/ha, 100 complete control
Summary of the method: as §1

[6] = system: eastern black (E.B.) nightshade (Solanum ptycanthum); settings: Preemergence
Summary of the method: as §1

[7] = system: morningglory (Ipomoea coccinea); settings: postemergence, 0-100 scale
Summary of the method: as §1

[8] = 8 g ai/ha, postemergence, 0-100 scale
[9] = 16 g ai/ha, postemergence, 0-100 scale
[10] = post-emergence, Postemergence, scale 0 to 100
[11] = post-emergence, Postemergence, scale 0 to 100, 0 no effect
[12] = pre-emergence, Preemergence, scale 0 to 100 (0 no effect, 100 complete control)
[13] = pre-emergence, Preemergence, 0 to 100 scale, 0 no effect
[14] = Preemergence, 8 g ai/ha, scale 0 to 100 (0 no effect, 100 complete control)
[15] = Preemergence, 16 g ai/ha, scale 0 to 100

**Q.** Which “Goosegrass plant response rating” value [1, 8] does the source give for `Cc1nn(C)c(=O)c(-c2nc(-c3ccc(Cl)cc3)sc2C)c1O` [Compound 79, 4-[2-(4-chlorophenyl)-5-methyl-4-thiazolyl]-5-hydroxy-2,6-dimethyl-3(2H)-pyridazinone] here?
**A.** 60

**Q.** And the “Goosegrass plant response rating” value [1, 9]?
**A.** 80

**Q.** And the pest or weed control at 31 g/ha [1, 10]?
**A.** 85%

**Q.** And the pest or weed control at 62 g/ha [1, 11]?
**A.** 90%

**Q.** And the pest or weed control at 31 g/ha [1, 12]?
**A.** 100%

**Q.** And the pest or weed control at 62 g/ha [1, 13]?
**A.** 100%

**Q.** And the “Goosegrass plant response rating” value [1, 14]?
**A.** 98

**Q.** What about the “Goosegrass plant response rating” value [1, 15] of the same compound?
**A.** 100

**Q.** And the “Foxtail, Green plant response rating” value [2, 8]?
**A.** 75

**Q.** And the “Foxtail, Green plant response rating” value [2, 14]?
**A.** 30

**Q.** What about the “Foxtail, Green plant response rating” value [2, 15] of the same compound?
**A.** 60

**Q.** And the pest or weed control at 16 g/ha ([2]; Setaria viridis, post-emergence, Postemergence, 16 g ai/ha, scale 0 to 100, read-out: Plant response rating, Foxtail, Green)?
**A.** 85%

**Q.** And the pest or weed control at 31 g/ha ([2]; Setaria viridis, post-emergence, Postemergence, scale 0 to 100, read-out: Plant response rating, Foxtail, Green)?
**A.** 98%

**Q.** And the pest or weed control at 62 g/ha ([2]; Setaria viridis, post-emergence, Postemergence, scale 0 to 100, 0 no effect, read-out: Plant response rating, Foxtail, Green)?
**A.** 98%

**Q.** And the pest or weed control at 31 g/ha ([2]; Setaria viridis, pre-emergence, Preemergence, scale 0 to 100 (0 no effect, 100 complete control), read-out: Plant response rating, Foxtail, Green)?
**A.** 98%

**Q.** And the pest or weed control at 62 g/ha ([2]; Setaria viridis, pre-emergence, Preemergence, 0 to 100 scale, 0 no effect, read-out: Plant response rating, Foxtail, Green)?
**A.** 100%

**Q.** What about the “Soybean plant response rating” value (soybean (Glycine max); [8]) of the same compound?
**A.** 0

**Q.** And the “Soybean plant response rating” value (soybean (Glycine max); [9])?
**A.** 0

**Q.** And the plant injury at 31 g/ha (soybean (Glycine max); [10])?
**A.** 15%

**Q.** What about the plant injury at 62 g/ha (soybean (Glycine max); [11]) of the same compound?
**A.** 15%

**Q.** What about the plant injury at 31 g/ha (soybean (Glycine max); [12]) of the same compound?
**A.** 98%

**Q.** What about the plant injury at 62 g/ha (soybean (Glycine max); [13]) of the same compound?
**A.** 100%

**Q.** What about the “Soybean plant response rating” value (soybean (Glycine max); [14]) of the same compound?
**A.** 0

**Q.** What about the “Soybean plant response rating” value (soybean (Glycine max); [15]) of the same compound?
**A.** 0

**Q.** And the “Crabgrass, Large plant response rating” value [3, 8]?
**A.** 75

**Q.** What about the pest or weed control at 16 g/ha ([3]; Digitaria sanguinalis, post-emergence, Postemergence, 16 g ai/ha, scale 0 to 100, read-out: Plant response rating, Crabgrass, Large) of the same compound?
**A.** 80%

**Q.** And the pest or weed control at 31 g/ha ([3]; Digitaria sanguinalis, post-emergence, Postemergence, scale 0 to 100, read-out: Plant response rating, Crabgrass, Large)?
**A.** 85%

**Q.** And the pest or weed control at 62 g/ha ([3]; Digitaria sanguinalis, post-emergence, Postemergence, scale 0 to 100, 0 no effect, read-out: Plant response rating, Crabgrass, Large)?
**A.** 98%

**Q.** What about the pest or weed control at 31 g/ha ([3]; Digitaria sanguinalis, pre-emergence, Preemergence, scale 0 to 100 (0 no effect, 100 complete control), read-out: Plant response rating, Crabgrass, Large) of the same compound?
**A.** 100%

**Q.** And the pest or weed control at 62 g/ha ([3]; Digitaria sanguinalis, pre-emergence, Preemergence, 0 to 100 scale, 0 no effect, read-out: Plant response rating, Crabgrass, Large)?
**A.** 100%

**Q.** What about the “Crabgrass, Large plant response rating” value [3, 14] of the same compound?
**A.** 20

**Q.** What about the “Crabgrass, Large plant response rating” value [3, 15] of the same compound?
**A.** 100

**Q.** And the “Ryegrass, Italian plant response rating” value [4, 8]?
**A.** 55

**Q.** What about the “Ryegrass, Italian plant response rating” value [4, 9] of the same compound?
**A.** 70

**Q.** What about the pest or weed control at 31 g/ha [4, 10] of the same compound?
**A.** 80%

**Q.** What about the pest or weed control at 62 g/ha [4, 11] of the same compound?
**A.** 90%

**Q.** And the pest or weed control at 31 g/ha [4, 12]?
**A.** 100%

**Q.** What about the pest or weed control at 62 g/ha [4, 13] of the same compound?
**A.** 100%

**Q.** And the “Ryegrass, Italian plant response rating” value [4, 14]?
**A.** 0

**Q.** What about the “Ryegrass, Italian plant response rating” value [4, 15] of the same compound?
**A.** 90

**Q.** And the “Bermudagrass plant response rating” value [5, 8]?
**A.** 70

**Q.** And the pest or weed control at 16 g/ha ([5]; Cynodon dactylon, post-emergence, Postemergence, 16 g ai/ha, scale 0 to 100, read-out: Plant response rating, Bermudagrass)?
**A.** 80%

**Q.** What about the pest or weed control at 31 g/ha ([5]; Cynodon dactylon, post-emergence, Postemergence, scale 0 to 100, read-out: Plant response rating, Bermudagrass) of the same compound?
**A.** 100%

**Q.** And the pest or weed control at 62 g/ha ([5]; Cynodon dactylon, post-emergence, Postemergence, scale 0 to 100, 0 no effect, read-out: Plant response rating, Bermudagrass)?
**A.** 100%

**Q.** What about the pest or weed control at 31 g/ha ([5]; Cynodon dactylon, pre-emergence, Preemergence, scale 0 to 100 (0 no effect, 100 complete control), read-out: Plant response rating, Bermudagrass) of the same compound?
**A.** 100%

**Q.** What about the pest or weed control at 62 g/ha ([5]; Cynodon dactylon, pre-emergence, Preemergence, 0 to 100 scale, 0 no effect, read-out: Plant response rating, Bermudagrass) of the same compound?
**A.** 100%

**Q.** What about the “Bermudagrass plant response rating” value [5, 14] of the same compound?
**A.** 90

**Q.** What about the “Bermudagrass plant response rating” value ([5]; Preemergence, 16 g ai/ha, scale 0 to 100 (0 no effect, 100 complete control)) of the same compound?
**A.** 100

**Q.** And the “Nightshade, E. B. plant response rating” value ([6]; 8 g ai/ha, scale 0 to 100 (0 no effect, 100 complete control))?
**A.** 0

**Q.** What about the “Nightshade, E. B. plant response rating” value ([6]; 16 g ai/ha, scale 0 to 100) of the same compound?
**A.** 0

**Q.** And the pest or weed control at 62 g/ha ([6]; Solanum, pre-emergence, 62 g ai/ha, 0 to 100 scale, 0 no effect, 100 complete control, read-out: Plant response rating, Nightshade, E. B.)?
**A.** 0%

**Q.** And the “Morningglory plant response rating” value ([7]; 8 g ai/ha)?
**A.** 0

**Q.** And the “Morningglory plant response rating” value ([7]; 16 g ai/ha)?
**A.** 0
